Data from patent publication US20260240800A1, “ELAFIBRANOR FOR THE TREATMENT OF PRIMARY BILIARY CHOLANGITIS” (Genfit, priority 2023, published 2026).

Tested on: participants with primary biliary cholangitis
Experiment: NCT04526665 (ELATIVE) double-blind, placebo-controlled phase 3 clinical trial
Format: in vivo, human
Method: Participants aged 18 to 75 years, who had been diagnosed with primary biliary cholangitis according to established criteria, were recruited at 82 sites in 14 countries. Inclusion criteria were an alkaline phosphatase level of ≥1.67 times the upper limit of the normal range (ULN), and a total bilirubin level of ≤2 times the ULN. Prior to screening, eligible participants had received 13 to 15 mg/kg ursodeoxycholic acid treatment per day for at least 12 months (stable dose for at least 3 months) or were intolerant to ursodeoxycholic acid (no treatment for at least 3 months).
In this double-blind, placebo-controlled, phase 3 trial, participants with an inadequate response or intolerance to ursodeoxycholic acid were randomized 2:1 to receive elafibranor 80 mg or placebo once daily. Participants receiving stable doses of ursodeoxycholic acid for at least three months prior to enrollment continued their treatment regimen throughout the trial. The overall double-blind treatment period consisted of two parts. In part one, all randomized participants received a minimum of 52 weeks of double-blind treatment. In part two, participants continued to receive double-blind treatment beyond Week 52 in a variable treatment period until all participants had completed their Week 52 assessment or until a maximum treatment duration of 104 weeks, whichever came first. The first database lock occurred after the last participant completed their Week 52 visit in the double-blind period. At the end of the double-blind period (lasting 52 to 104 weeks), participants could optionally enter an open-label extension where they would receive elafibranor 80 mg for up to five years.
The primary endpoint of Study NCT04526665 was response to treatment in the intent-to-treat population at Week 52, defined as ALP<1.67×ULN, TB≤ULN, and ALP decrease ≥15% from baseline. The primary endpoint was also analyzed according to baseline alkaline phosphatase levels of ≤3 times versus >3 times the ULN.
From September 2020 through May 2023, 161 participants were randomly assigned to receive elafibranor 80 mg (108 participants) or placebo (53 participants); these participants made up the intent-to-treat (ITT) and safety populations.

CSc1ccc(C(=O)C=Cc2cc(C)c(OC(C)(C)C(=O)O)c(C)c2)cc1 [elafibranor, 2-(2,6-dimethyl-4-{3-[4-(methylsulfanyl)phenyl]-3-oxoprop-1-en-1-yl}phenoxy)-2-methylpropanoic acid]
efficacy in baseline ALP >1.67×ULN and ≤3×ULN relative to baseline ALP >3×ULN (80 mg daily): more than 3 times
Primary endpoint met at week 52, n (%) (1.67 ULN < ALP ≤ 3 ULN, ITT Analysis Set, n=65): 46 (70.8) n (%)
Response according to Paris I criteria: Primary endpoint met at week 52, n (%) (ALP <3×ULN, AST <2×ULN and TB ≤1 mg/dL, ITT Analysis Set, n=106): 73 (68.9) n (%)
Primary endpoint met at week 52, n (%) (ALP > 3 ULN, ITT Analysis Set, n=43): 9 (20.9) n (%)
safety and tolerability in patients (PBC patients): safe and well-tolerated
Odds Ratio of response (elafibranor vs placebo), Paris I criteria (Week 52, ITT Analysis Set): 2.852
Proportion of responders (Paris I criteria) (Week 52, ITT Analysis Set): 0.689
Risk difference (Paris I response, elafibranor vs placebo) (Week 52, ITT Analysis Set): 0.220
difference in Paris I response vs placebo (Week 52, ITT Analysis Set): 22.0%
participants with response based on ALP<3×ULN, AST<2×ULN and TB≤1 mg/dl (Paris I) (Week 52, ITT Analysis Set, 73/106): 68.9%
complete normalization of alkaline phosphatase at Week 52, difference vs placebo (all participants, Week 52): 15%
complete normalization of alkaline phosphatase at Week 52, odds ratio vs placebo (all participants, Week 52, 95% CI 2.8 to infinity): infinity
complete normalization of alkaline phosphatase at Week 52, % of participants (all participants, elafibranor 80 mg once daily, Week 52): 15%
complete normalization of alkaline phosphatase at Week 52, % of patients (baseline ALP >3 times the ULN): 4.7%
participants who met the primary endpoint (ALP<1.67×ULN, TB≤ULN, ALP decrease ≥15%) (baseline ALP >3 times the ULN (43 participants), Week 52): 20.9%
frequency of ALP normalization relative to other participants (FIG. 4) (baseline ALP more than 1.67×ULN and at most 2×ULN vs others, Week 52): at least 4 times
participants with a biochemical response at Week 52 (FIG. 3) (baseline ALP more than 1.67×ULN and at most 2.5×ULN): more than 80%
participants with a biochemical response at Week 52 (FIG. 3) (baseline ALP more than 2.5×ULN and at most 3×ULN): more than 50%
participants with a biochemical response at Week 52 (FIG. 3) (baseline ALP more than 3×ULN): less than 23%
biochemical response and ALP normalization rates by baseline ALP (FIGS. 3 to 5) (baseline ALP ≤3 ULN versus higher baseline ALP): higher biochemical response and ALP normalization rates
complete normalization of alkaline phosphatase at Week 52, % of patients (baseline ALP ≤3 times the ULN): 21.5%
participants who met the primary endpoint (ALP<1.67×ULN, TB≤ULN, ALP decrease ≥15%) (baseline ALP ≤3 times the ULN (65 participants), Week 52): 70.8%
reductions in alkaline phosphatase levels over time (baseline through Week 4, sustained significantly lower than placebo through Week 52): Rapid reductions
reduction in plasma ALP levels from baseline compared to placebo (treatment with elafibranor vs placebo): statistically significant reduction
